Patent EP0297610A1, “N-[(2,6-disubstituted)phenyl]-urea and carbamate inhibitors of acyl-CoA:cholesterol acyl-transferase” (WARNER-LAMBERT COMPANY, priority 1987, dated 1989)

Experiments:
[1] = molecular target: acyl-CoA:cholesterol acyltransferase (ACAT); experiment: In vitro ACAT inhibition: formation of radiolabeled cholesterol oleate from radiolabeled oleic acid in rabbit intestinal microsomes; assay type: biochemical; settings: tissue preparation containing rabbit intestinal microsomes, read-out: IC₅₀
Source text: The test assesses the ability of a test compound to inhibit the acylation of cholesterol by oleic acid by measuring the amount of radiolabeled cholesterol oleate formed from radiolabeled oleic acid in a tissue preparation containing rabbit intestinal microsomes.

male Sprague-Dawley rats = experiment: In vivo screen PCC: total blood cholesterol in cholesterol-fed rats; settings: one week; for % Change: change of total blood cholesterol vs control (181 mg/dl), 0.05% test drug in diet, rats; for Total Blood Cholesterol: male Sprague-Dawley rats, 0.05% test drug admixed into diet with 5.5% peanut oil, 1.5% cholesterol, 0.3%-0.5% cholic acid, Control = 181
Source text: In an in vivo screen, designated PCC, male Sprague-Dawley rats (approximately 200 g body weight) are randomly divided into groups and provided ad libidum a regular chow diet (Purina No. 5002, Ralston Purina Co., 711 West Fuesser Road, Mascoutah, Illinois, 62224, USA), supplemented with 5.5% peanut oil, 1.5% choles-terol, and 0.3%-0.5% cholic acid, together with 0.05% of the test drug which is admixed into the diet. After one week the animals are etherized and a blood sample is taken from the heart and mixed with 0.14% ethylene-diamine tetraacetic acid (EDTA) to measure the total cholesterol.

Row | SMILES | IC50 [1] [nM] | % Change (male Sprague-Dawley rats) [%] | Total Blood Cholesterol (male Sprague-Dawley rats)
1 | CCCCCCCCCCC(C)(C)NC(=O)Nc1c(CC)cccc1CC [Example 19, N-(2,6-Diethylphenyl)-N′-(1.1-dimethylundecyl)urea] | 52 | -60 | 73 (Control = 181) mg/dl
2 | CCCCCCCCCCNC(=O)Nc1c(C)cccc1C(C)(C)C [Example 18, N-Decyl-N′-[2-(1,1-dimethylethyl)-6-methylphenyl]urea] | 200 |  | 
3 | CCCCCCCCCCCCCCNC(=O)Nc1c(CC)cccc1C(C)C [Example 1, N-[2-Ethyl-6-(1-methylethyl)-phenyl]-N′-tetradecylurea] | 19 | -41 | 106 (Control = 181) mg/dl
4 | CCCCCCCCCCC(C)(C)NC(=O)Nc1c(C(C)C)cccc1C(C)C [Example 20, N-[2.6-bis(1-Methylethyl)phenyl]-N′-(1,1-dimethylundecyl)urea] | 45 |  | 
5 | CCCCCCCCCCNC(=O)Nc1c(C(C)C)cccc1C(C)C [Example 15, N-[2,6-bis(1-Methylethyl)phenyl]-N′-decylurea] | 56 |  | 
6 | CCCCCCCC/C=C\CCCCCCCCNC(=O)Nc1c(C)cccc1C [Example 4, (Z)-N-(2,6-Dimethylphenyl)-N′-9-octadecenylurea] | 160 |  | 
7 | CCCCCCCC/C=C\CCCCCCCCNC(=O)Nc1c(C)cccc1Cl [Example 5, (Z)-N-(2-Chloro-6-methylphenyl)-N′-9-octadecenylurea] | 180 |  | 
8 | CCCCCCCCCCCCCCNC(=O)Nc1c(CC)cccc1CC [Example 8, N-(2,6-Diethylphenyl)-N′-tetra-decylurea] | 21 |  | 
9 | CCCCCCCC/C=C\CCCCCCCCNC(=O)Nc1c(CC)cccc1C(C)C [Example 2, (Z)-N-[2-Ethyl-6-(1-methylethyl)-phenyl]-N′-9-octadecenylurea] | 37 | -41 | 107 (Control = 181) mg/dl
10 | CCCCCCCC/C=C\CCCCCCCCNC(=O)Nc1c(Cl)cccc1Cl [Example 6, (Z)-N-(2,6-Dichlorophenyl)-N′-9-octadecenylurea] | 400 |  | 
11 | CCCCCCCCCCCCCCNC(=O)Nc1c(C)cccc1Cl [Example 7, N-(2-Chloro-6-methylphenyl)-N′-tetradecylurea] | 27 |  | 
12 | CCCCCCCCCCC1(NC(=O)Nc2c(CC)cccc2CC)CCCC1 [Example 21, N-(1-Decylcyclopentyl)-N′-(2.6-diethylphenyl)urea] | 100 |  | 
13 | CCCCCCCC/C=C\CCCCCCCCNC(=S)Nc1c(C)cccc1C [Example 3, (Z)-N-(2,6-Dimethylphenyl)-N′-9-octadecenylthiourea] | 10000 |  | 
14 | CCCCCCCCCCCCCCCCCCNC(=O)Nc1c(C(C)C)cccc1C(C)C [Example 11, N-[2,6-bis(1-Methylethyl)phenyl]-N′-octadecylurea] | 48 |  | 
15 | CCCCCCCCCCCCCCNC(=S)Nc1c(CC)cccc1CC [Example 12, N-(2,6-Diethylphenyl)-N′-tetradecylthiourea] | 420 |  | 
16 | CCCCCCCCCCNC(=O)Nc1c(C)cccc1C(C)C [Example 17, N-Decyl-N′-[2-methyl-6-(l-methylethyl)-phenyl]urea.] | 210 |  | 
17 | CCCCCCCCCCCCCCCCCCNC(=O)Nc1c(C)cccc1Cl [Example 10, N-(2-Chloro-6-methylphenyl)-N′-octadecylurea] | 1100 |  | 
